# Source: US20240261417A1, “SOS1 DEGRADING AGENT AND PREPARATION METHOD THEREFOR AND APPLICATION THEREOF” (SHANGHAI LEADINGTAC PHARMACEUTICAL CO. LTD., priority 2021, published 2024)
# Assays:
# KRAS-G12C/SOS1 = biological target: T1, KRAS-G12C/SOS1 (Homo sapiens, UniProt Q07889); assay: KRAS-G12C/SOS1 binding assay (HTRF); conditions: inhibition of KRAS-G12C/SOS1 binding
# T1 construct: purchased Cisbio 63ADKOOOCB16PEG
# T1 sequence (Q07889 1-1333): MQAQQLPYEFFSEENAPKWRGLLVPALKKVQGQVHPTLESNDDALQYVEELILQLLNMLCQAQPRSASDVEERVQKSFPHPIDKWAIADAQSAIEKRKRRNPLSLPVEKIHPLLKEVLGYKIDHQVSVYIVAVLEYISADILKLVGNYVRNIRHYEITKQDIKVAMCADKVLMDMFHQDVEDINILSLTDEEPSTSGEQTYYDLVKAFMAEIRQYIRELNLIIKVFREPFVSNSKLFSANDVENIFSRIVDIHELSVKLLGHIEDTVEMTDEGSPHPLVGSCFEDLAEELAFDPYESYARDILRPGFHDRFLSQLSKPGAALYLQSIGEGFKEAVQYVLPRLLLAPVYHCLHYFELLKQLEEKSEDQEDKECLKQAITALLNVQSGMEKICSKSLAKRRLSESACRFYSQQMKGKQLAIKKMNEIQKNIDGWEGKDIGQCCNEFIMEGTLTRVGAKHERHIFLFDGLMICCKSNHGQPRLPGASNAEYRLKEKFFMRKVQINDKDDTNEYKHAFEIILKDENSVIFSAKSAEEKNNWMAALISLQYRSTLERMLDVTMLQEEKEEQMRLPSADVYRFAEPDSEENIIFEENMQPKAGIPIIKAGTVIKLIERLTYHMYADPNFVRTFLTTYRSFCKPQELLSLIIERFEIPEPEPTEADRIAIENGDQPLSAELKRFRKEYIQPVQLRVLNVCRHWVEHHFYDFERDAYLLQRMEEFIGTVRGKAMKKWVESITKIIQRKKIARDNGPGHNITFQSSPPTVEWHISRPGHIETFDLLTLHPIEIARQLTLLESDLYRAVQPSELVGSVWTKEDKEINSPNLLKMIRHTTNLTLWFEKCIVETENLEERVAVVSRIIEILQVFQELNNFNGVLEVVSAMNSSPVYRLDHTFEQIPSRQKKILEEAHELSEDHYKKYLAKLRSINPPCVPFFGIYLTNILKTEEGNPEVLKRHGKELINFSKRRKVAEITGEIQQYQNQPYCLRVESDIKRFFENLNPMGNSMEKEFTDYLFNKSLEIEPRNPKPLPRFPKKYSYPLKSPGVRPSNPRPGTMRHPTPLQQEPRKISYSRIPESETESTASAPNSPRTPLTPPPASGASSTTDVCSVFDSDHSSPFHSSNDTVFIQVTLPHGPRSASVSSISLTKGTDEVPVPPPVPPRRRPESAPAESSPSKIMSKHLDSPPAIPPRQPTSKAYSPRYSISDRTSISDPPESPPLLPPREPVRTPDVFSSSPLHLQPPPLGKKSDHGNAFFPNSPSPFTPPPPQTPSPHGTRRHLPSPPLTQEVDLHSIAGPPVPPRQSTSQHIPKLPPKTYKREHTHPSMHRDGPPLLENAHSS
# Description: The following method was used to determine the extent of inhibition of KRAS-G12C/SOS1 binding by the preferred compounds of the present invention under in vitro conditions. In this method, the competitive inhibition of KRAS-G12C/SOS1 binding by the preferred compounds was assayed by the homogeneous time-resolved fluorescence (HTRF) technology using the KRAS-G12C/SOS1 binding assay kit (Cisbio, 63ADKOOOCB16PEG).
# The experimental procedures were as follows (refer to the kit instructions for details): the compounds of the present invention were each firstly dissolved in DMSO at a concentration of 20 mM, and then diluted in an equal gradient with a buffer in the kit, so that the final concentrations of the test compounds in the reaction system were in a range of 10000 nM-0.04 nM, and the final concentration of DMSO was 0.5%. 2 μL of the compounds were each incubated with 4 μL of 1×Tag1-SOS1, 4 μL of 1×Tag2-KRAS-G12C (containing 10 μM guanosine triphosphate, GTP) at 25° C. for 15 min. Then 5 μL of 1× Anti-Tag1-Tb3+ and 5 μL of 1× Anti-Tag2-XL665 were added to the reaction system, and the mixture was incubated on ice for 3 h. After the incubation, the fluorescence intensity of each well was measured at the excitation wavelength of 337 nm, the fluorescence intensity of each well was read at the emission wavelengths of 620 nm and 665 nm on a microplate reader EnVision (PerkinElmer, 2105) in an HTRF mode, and the Ratio value was calculated by the formula Ratio=(665 nm/620 nm)×[…]. The inhibition rates of the compounds at each concentration were calculated by comparing the fluorescence intensity ratio with that of the control group, and then nonlinear curve fitting was performed by GraphPad Prism 8 in the logarithmic concentration-inhibition rate to obtain the IC50 values of the compounds, as shown in Table 1.
# SOS1 protein = biological target: T2, SOS1 protein (Homo sapiens, UniProt Q07889); assay: SOS1 degradation assay (Western blot), NCI-H358 cells; type: cell-based; design: The degradation of SOS1 by the compounds was investigated on KRAS G12C mutant human non-small cell lung cancer cells NCI-H358; host or cells: NCI-H358 (human cancer cell lines); conditions: SOS1 degradation, NCI-H358 cells, 24 h, Western blot; for DC50: read-out: NCI-H358 (G12C) DC50; for Dmax: read-out: NCI-H358 (G12C) Dmax
# T2 sequence (Q07889 1-1333): T1 sequence (Q07889 1-1333)
# Procedure, shortened: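 Cells at 5×10^5 per well were treated for 24 h at 37 °C with compound at 0.03–3000 nM final. SOS1 in lysates was measured by Western blot with chemiluminescent densitometry and normalised to the control group. DC50 and Dmax came from nonlinear fits against log concentration.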
smiles,measurement,setting,value
"COc1cc2nc(C)nc(N[C@H](C)c3cc(-c4c(Cl)cccc4CN(C)C)cs3)c2cc1[C@H]1CC[C@H](C(=O)N2CCC(CCCC3CCN(C(=O)c4ccc(Cl)c(N5CCC(=O)NC5=O)c4)CC3)CC2)CC1 [Example 79, 1-(2-chloro-5-(4-(3-(1-((1R,4R)-4-(4-(((R)-1-(4-(2-chloro-6-((dimethylamino)methyl)phenyl)thien-2-yl)ethyl)amino)-7-methoxy-2-methylquinazolin-6-yl)cyclohexane-1-carbonyl)piperidin-4-yl)propyl)piperidine-1-carbonyl)phenyl)dihydropyrimidine-2,4(1H,3H)-dione]",IC50,KRAS-G12C/SOS1,≤ 0.015 µM
same,DC50,SOS1 protein,0.05 to 0.1 µM
same,Dmax,SOS1 protein,50 to 80%
"Cc1nc(N[C@H](C)c2cc(N)cc(C(F)(F)F)c2)c2cc([C@H]3CC[C@H](C(=O)N4CCN(CC5CCC6(CC5)CCN(C(=O)c5ccc(Cl)c(N7CCC(=O)NC7=O)c5)CC6)CC4)CC3)c(C)cc2n1 [Example 72, 1-(5-(9-((4-((1R,4R)-4-(4-(((R)-1-(3-amino-5-(trifluoromethyl)phenyl)ethyl)amino)-2,7-dimethylquinazolin-6-yl)cyclohexane-1-carbonyl)piperazin-1-yl)methyl)-3-azaspiro[5.5]undecane-3-carbonyl)-2-chlorophenyl)dihydropyrimidine-2,4(1H,3H)-dione]",IC50,KRAS-G12C/SOS1,≤ 0.015 µM
same,DC50,SOS1 protein,< 0.05 µM
same,Dmax,SOS1 protein,50 to 80%
"CNCc1ccccc1-c1csc([C@@H](C)Nc2nc(C)nc3cc(OC)c([C@H]4CC[C@H](C(=O)N(C)CCCC5CCC6(CC5)CCN(C(=O)c5ccc(Cl)c(N7CCC(=O)NC7=O)c5)CC6)CC4)cc23)c1 [Example 49, (1R,4R)—N-(3-(3-(4-chloro-3-(2,4-dioxotetrahydropyrimidin-1(2H)-yl)benzoyl)-3-azaspiro[5.5]undecan-9-yl)propyl)-4-(7-methoxy-2-methyl-4-(((R)-1-(4-(2-((methylamino)methyl)phenyl)thien-2-yl)ethyl)amino)quinazolin-6-yl)-N-methylcyclohexane-1-carboxamide]",IC50,KRAS-G12C/SOS1,≤ 0.015 µM
same,DC50,SOS1 protein,0.1 to 0.5 µM
same,Dmax,SOS1 protein,50 to 80%
"COc1cc2nc(C)nc(N[C@H](C)c3cccc4c3CCS4(=O)=O)c2cc1[C@H]1CC[C@H](C(=O)N2CCC(CCOCC3CCN(C(=O)c4ccc(Cl)c(N5CCC(=O)NC5=O)c4)CC3)CC2)CC1 [Example 55, 1-(2-chloro-5-(4-((2-(1-((1R,4R)-4-(4-(((R)-1-(1,1-dioxido-2,3-dihydrobenzo[b]thiophen-4-yl)ethyl)amino)-7-methoxy-2-methylquinazolin-6-yl)cyclohexane-1-carbonyl)piperidin-4-yl)ethoxy)methyl)piperidine-1-carbonyl)phenyl)dihydropyrimidine-2,4(1H,3H)-dione]",IC50,KRAS-G12C/SOS1,≤ 0.015 µM
"COc1cc2nc(C)nc(N[C@H](C)c3cc(-c4c(Cl)cccc4CN(C)C)cs3)c2cc1[C@H]1CC[C@H](C(=O)N2CCC(CCOCC3CCN(C(=O)c4ccc(OC(F)(F)F)c(N5CCC(=O)NC5=O)c4)CC3)CC2)CC1 [Example 58, 1-(5-(4-((2-(1-((1R,4R)-4-(4-(((R)-1-(4-(2-chloro-6-((dimethylamino)methyl)phenyl)thien-2-yl)ethyl)amino)-7-methoxy-2-methylquinazolin-6-yl)cyclohexane-1-carbonyl)piperidin-4-yl)ethoxy)methyl)piperidine-1-carbonyl)-2-(trifluoromethoxy)phenyl)dihydropyrimidine-2,4(1H,3H)-dione]",IC50,KRAS-G12C/SOS1,≤ 0.015 µM
"COc1cc2nc(C)nc(N[C@H](C)c3cccc4c3CCS4(=O)=O)c2cc1[C@H]1CC[C@H](C(=O)N2CCC(CCOCC3CCN(C(=O)c4ccc(C(F)(F)F)c(N5CCC(=O)NC5=O)c4)CC3)CC2)CC1 [Example 66, 1-(5-(4-((2-(1-((1R,4R)-4-(4-(((R)-1-(1,1-dioxido-2,3-dihydrobenzo[b]thiophen-4-yl)ethyl)amino)-7-methoxy-2-methylquinazolin-6-yl)cyclohexane-1-carbonyl)piperidin-4-yl)ethoxy)methyl)piperidine-1-carbonyl)-2-(trifluoromethyl)phenyl)dihydropyrimidine-2,4(1H,3H)-dione]",IC50,KRAS-G12C/SOS1,≤ 0.015 µM
"COc1cc2nc(C)nc(N[C@H](C)c3cc(N)cc(C(F)(F)F)c3)c2cc1[C@H]1CC[C@H](C(=O)N2CCN(CCCCC3CCN(C(=O)c4ccc(Cl)c(N5CCC(=O)NC5=O)c4)CC3)CC2)CC1 [Example 29, 1-(5-(4-(4-(4-((1R,4R)-4-(4-(((R)-1-(3-amino-5-(trifluoromethyl)phenyl)ethyl)amino)-7-methoxy-2-methylquinazolin-6-yl)cyclohexane-1-carbonyl)piperazin-1-yl)butyl)piperidine-1-carbonyl)-2-chlorophenyl)dihydropyrimidine-2,4(1H,3H)-dione]",DC50,SOS1 protein,< 0.05 µM
same,Dmax,SOS1 protein,80 to 100%
"COc1cc2nc(C)nc(N[C@H](C)c3cc(N)cc(C(F)(F)F)c3)c2cc1[C@H]1CC[C@H](C(=O)N2CCC(CN3CCC4(CC3)CCN(C(=O)c3ccc(Cl)c(N5CCC(=O)NC5=O)c3)CC4)CC2)CC1 [Example 7, 1-(5-(9-((1-((1R,4R)-4-(4-(((R)-1-(3-amino-5-(trifluoromethyl)phenyl)ethyl)amino)-7-methoxy-2-methylquinazolin-6-yl)cyclohexane-1-carbonyl)piperidin-4-yl)methyl)-3,9-diazaspiro[5.5]undecane-3-carbonyl)-2-chlorophenyl)dihydropyrimidine-2,4(1H,3H)-dione]",DC50,SOS1 protein,1 to 10 µM
same,Dmax,SOS1 protein,30 to 50%
"COc1cc2nc(C)nc(N[C@H](C)c3cc(N)cc(C(F)(F)F)c3)c2cc1OC1CCN(C(=O)C2CCN(CC3CCC4(CC3)CCN(C(=O)c3ccc(Cl)c(N5CCC(=O)NC5=O)c3)CC4)CC2)CC1 [Example 5, (R)-1-(5-(9-((4-(4-((4-((1-(3-amino-5-(trifluoromethyl)phenyl)ethyl)amino)-7-methoxy-2-methylquinazolin-6-yl)oxy)piperidine-1-carbonyl)piperidin-1-yl)methyl)-3-azaspiro[5.5]undecane-3-carbonyl)-2-chlorophenyl)dihydropyrimidine-2,4(1H,3H)-dione]",DC50,SOS1 protein,0.05 to 0.1 µM
same,Dmax,SOS1 protein,80 to 100%
